The values below are quoted from earlier work in patent publication US4377591A, “7-Oxo-1-azabicyclo[3.2.0]hept-2-ene-2-carboxylic acid derivatives, their use and preparation” (Sankyo Company, Limited, priority 1980, dated 1983).

This series concerns bacteria. Particulars: Japanese Patent Application Kokai No. 73191/76.

In the case of `C[C@@H](O)[C@H]1C(=O)N2C(C(=O)O)=C(SCCN)C[C@H]12` [thienamycin, (5R,6S)-3-(2-aminoethylthio)-6-[1-(R)-hydroxyethyl]-7-oxo-1-azabicyclo[3.2.0]hept-2-ene-2-carboxylic acid], the “antibacterial activity (in words)” value is reported as “extraordinarily potent antibacterial activity”.
